Data as given in BigSolDB 2.1.

O=C(c1ccccc1)c1ccc(Cl)cc1
solubility (mole fraction)
Details	278.15 K	283.15 K	288.15 K	293.15 K	298.15 K	303.15 K	308.15 K	313.15 K	318.15 K	323.15 K
in acetone	0.0863	0.0934	0.116	0.146	0.181	0.224	0.277	0.342	0.454	0.615
in acetonitrile	0.0216	0.0258	0.0352	0.0438	0.0625	0.0858	0.131	0.19	0.307	0.616
in ethanol	0.00817	0.0103	0.0124	0.0151	0.0195	0.0239	0.0318	0.043	0.06	0.0856
in ethyl acetate	0.114	0.118	0.138	0.167	0.203	0.24	0.294	0.351	0.43	0.534
in isobutanol	0.0102	0.0113	0.0138	0.0173	0.0225	0.0305	0.0408	0.0549	0.0821	0.123
in isopropanol	0.00704	0.00886	0.0118	0.0153	0.0187	0.0223	0.0288	0.0398	0.0617	0.0896
in methanol	0.00549	0.00622	0.00802	0.00943	0.012	0.0149	0.0203	0.027	0.0384	0.0594
in methyl acetate	0.0971	0.109	0.134	0.164	0.196	0.239	0.289	0.354	0.417	0.494
in n-butanol	0.0271	0.0304	0.0347	0.0394	0.0436	0.0478	0.0531	0.0677	0.0993	0.211
in n-butyl acetate	0.133	0.142	0.156	0.182	0.212	0.248	0.285	0.329	0.383	0.454
in n-propanol	0.0111	0.0128	0.0163	0.0205	0.0247	0.0325	0.0424	0.0571	0.0829	0.135
